{
  "source": "paper PMC5274652",
  "about": "“Antagonizing Retinoic Acid Receptors Increases Myeloid Cell Production by Cultured Human Hematopoietic Stem Cells” (Archivum Immunologiae et Therapiae Experimentalis, 2016)",
  "molecules": {"B1": {"name": "granulocyte-colony stimulating factor (protein, UniProt P09919 31-207, looked up)", "Granulocyte …": "TPLGPASSLPQSFLLKCLEQVRKIQGDGAALQEKLVSECATYKLCHPEELVLLGHSLGIPWAPLSSCPSQALQLAGCLSQLHSGLFLYQGLLQALEGISPELGPTLDTLQLDVADFATTIWQQMEELGMAPALQPTQGAMPAFASAFQRRAGGVLVASHLQSFLEVSYRVLRHLAQP", "notes": "growth factor added at 30 ng/ml as benchmark for optimal generation of myeloid cells"}},
  "key": {"NB-4 cells": {"system": "NB-4 cells", "assay": "Differentiation of NB-4 cells (CD11b/CD14 flow cytometry)", "type": "cell-based, human", "details": "96 h", "experimental": "(§1) NB-4 and KG1 cells were obtained from the German Resource Center for Biological Material (DSMZ GmbH, Braunschweig, Germany). The cells were grown in RPMI-1640 medium supplemented with 10 % fetal bovine serum (FBS), 100 U/ml penicillin, and 100 µg/ml streptomycin (Sigma, St Louis, MO, USA). Cells were grown at 37 °C in 5 % CO2.\n(§2) The expression of differentiation markers at the cell surface was determined by flow cytometry. Differentiation of NB-4 and KG1 cells was measured by staining using the monoclonal antibodies CD11b-FITC and CD14-PE and appropriately labeled isotype controls (all from ImmunoTools, Friesoythe, Germany). Differentiation of human CD34^+ve cells was measured by triple-color staining using various cocktails of phycoerythrin-, fluorescein isothyocyanate-, and PerCP-monoclonal antibodies (from Becton–Dickinson, San Jose, CA, USA). The markers used to identify cell populations were as follows: CD45^+ve leukocytes; CD34^+ve/CD133^+ve HSCs; CD33^+ve/CD13^+ve immature myeloid; CD117^+ve myeloblasts and promyelocytes; CD11b^+ve/CD15^+ve mature myeloid; CD11b^+ve/CD65^+ve neutrophils; CD11b^+ve/CD14^+ve monocytes; glycophorin^+ve A erythroid cells; CD61^+ve megakaryoblasts and platelets; CD2^+ve/CD5^+ve/CD7^+ve T cells and NK cells; CD56^+ve NK cells; CD19^+ve/CD20^+ve B cells; and CD10^+ve B lymphocyte progenitors; and present on mature neutrophils and DR^+ve progenitors and present on mature monocytes. The cells were stained with 1 µl of the fluorescently labeled antibody (or the appropriate control immunoglobulin) for 1 h on ice. Next, they were washed with ice-cold phosphate-buffered saline (PBS) and suspended in 0.5 ml PBS supplemented with 0.1 % bovine serum albumin (Sigma, St Louis, MO, USA) prior to analysis on FACS Calibur flow cytometer (Becton–Dickinson, San Jose, CA, USA). The acquisition parameters were set for an isotype control. Cells were analyzed using a FACSCalibur, and data analysis was performed using the CellQuest Pro software (Becton–Dickinson, San Jose, CA, USA)."}, "human RARα": {"biological_target": "T1, human RARα (Homo sapiens, UniProt P10276)", "T1 construct": "made in house", "T1 sequence (P10276 1-462)": "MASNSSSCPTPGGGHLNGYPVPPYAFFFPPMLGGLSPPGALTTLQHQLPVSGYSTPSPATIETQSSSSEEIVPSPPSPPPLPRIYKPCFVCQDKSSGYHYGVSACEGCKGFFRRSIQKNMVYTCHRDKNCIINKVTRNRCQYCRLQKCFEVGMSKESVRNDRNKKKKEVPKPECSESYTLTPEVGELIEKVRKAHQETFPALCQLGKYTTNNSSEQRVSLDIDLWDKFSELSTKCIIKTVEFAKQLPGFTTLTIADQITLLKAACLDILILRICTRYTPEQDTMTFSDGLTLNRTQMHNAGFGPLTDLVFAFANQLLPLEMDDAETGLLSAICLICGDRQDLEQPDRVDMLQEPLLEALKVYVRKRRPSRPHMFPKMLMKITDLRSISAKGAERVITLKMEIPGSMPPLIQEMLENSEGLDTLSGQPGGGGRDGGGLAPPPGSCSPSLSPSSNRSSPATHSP", "assay": "Competition with [3H]-ATRA binding, nuclear extracts of Sf21 cells expressing RARα", "details": "nuclear extracts of baculovirus-infected Sf21 cells, read-out: Binding affinity ED50, RARα"}, "human RARγ": {"biological_target": "T2, human RARγ (Homo sapiens, UniProt P13631)", "T2 construct": "made in house", "T2 sequence (P13631 1-454)": "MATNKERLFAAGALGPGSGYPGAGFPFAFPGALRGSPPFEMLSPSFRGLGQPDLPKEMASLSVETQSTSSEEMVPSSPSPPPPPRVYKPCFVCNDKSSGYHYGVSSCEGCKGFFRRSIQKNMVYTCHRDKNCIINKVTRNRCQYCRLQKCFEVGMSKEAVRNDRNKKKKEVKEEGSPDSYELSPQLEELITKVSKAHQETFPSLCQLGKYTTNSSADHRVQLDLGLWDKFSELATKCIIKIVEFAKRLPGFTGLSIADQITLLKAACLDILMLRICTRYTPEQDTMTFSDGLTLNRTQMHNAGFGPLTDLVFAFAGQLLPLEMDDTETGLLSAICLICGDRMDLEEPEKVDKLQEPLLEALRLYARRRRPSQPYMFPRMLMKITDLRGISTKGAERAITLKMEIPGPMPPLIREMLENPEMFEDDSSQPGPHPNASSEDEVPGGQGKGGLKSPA", "assay": "Competition with [3H]-ATRA binding, nuclear extracts of Sf21 cells expressing RARγ", "details": "nuclear extracts of baculovirus-infected Sf21 cells"}, "human RARβ": {"biological_target": "T3, human RARβ (Homo sapiens, UniProt P10826)", "T3 construct": "made in house", "T3 sequence (P10826 1-455)": "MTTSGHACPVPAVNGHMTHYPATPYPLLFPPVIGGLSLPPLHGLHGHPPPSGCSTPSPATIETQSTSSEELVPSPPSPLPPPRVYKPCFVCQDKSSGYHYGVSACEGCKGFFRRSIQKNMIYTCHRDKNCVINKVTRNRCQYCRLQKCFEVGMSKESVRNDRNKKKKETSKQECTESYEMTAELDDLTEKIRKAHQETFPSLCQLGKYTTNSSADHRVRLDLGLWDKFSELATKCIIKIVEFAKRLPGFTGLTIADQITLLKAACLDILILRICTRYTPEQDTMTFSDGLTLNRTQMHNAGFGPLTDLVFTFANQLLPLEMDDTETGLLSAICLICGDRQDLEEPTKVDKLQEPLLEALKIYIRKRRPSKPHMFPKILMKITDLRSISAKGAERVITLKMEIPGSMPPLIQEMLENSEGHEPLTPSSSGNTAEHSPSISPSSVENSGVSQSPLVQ", "assay": "Competition with [3H]-ATRA binding, nuclear extracts of Sf21 cells expressing RARβ", "details": "nuclear extracts of baculovirus-infected Sf21 cells, read-out: Binding affinity ED50, RARβ"}, "KG1 cells": {"system": "KG1 cells", "assay": "Differentiation of KG1 cells (CD11b/CD14 flow cytometry)", "type": "cell-based, human", "details": "96 h", "experimental": "as §1, §2"}, "CD34^+vehuHSC": {"system": "CD34^+vehuHSC", "assay": "Cell production and lifespan of CD34+ve huHSC-initiated cultures", "type": "cell-based, human", "source_text": "(§3) The cells used were CD34^+ve cells purified from the blood of normal human adult donors and post-mobilization of stem cells to the blood. Cells obtained and purified in this manner are used routinely by the National Blood Service Stem Cell Laboratory in Birmingham for bone marrow transplantation. Ethics approval for the use of adult human blood-mobilized stem cells (CD34^+vehuHSC) was from the West Midlands Research Ethics Committee. Informed consent was obtained by the regional National Blood Service Stem Cell Laboratory in Birmingham. CD34^+ve cells were purified to 99 % CD34^+ve, 97 % CD133^+ve, >99 % lineage^−ve (n = 15) using an anti-CD34 monoclonal antibody, immunomagnetic beads, and a CliniMACS magnetic separator. Purified cells were plated at 5 × 10^5 cells/ml in microtiter wells in 200 μl of either RPMI-1640 medium (R and D Systems, Abingdon, UK) or HPGM^TM hematopoietic growth medium (Lonza, UK) containing either 10 % FBS or 10 % human serum, antibiotics (100 U/ml penicillin and 100 μg/ml streptomycin) and stem cell factor (SCF), interleukin (IL)-3, and granulocyte-colony stimulating factor (G-CSF) (all from R and D Systems Abingdon, UK) as stated in the results. Cultures were fed every 2–3 days (with fresh compound), split into microtiter wells, and then expanded into 2 ml Costar wells to maintain a cell density of between 2.5 and 10 × 10^5 cells/ml. Cells were grown at 37 °C in 5 % CO2. Viable cells were enumerated by phase contrast microscopy (400× magnification).\nas §2"}, "[1]": {"system": "lineage^−ve/CD133^+ve/CD34^+vehuHSC", "assay": "Ex vivo expansion of lineage-ve/CD133+ve/CD34+ve huHSC", "type": "cell-based, human", "details": "all 15 donors; control 8–10-fold", "source_text": "as §3, with “Viable cells were enumerated by phase contrast microscopy (400× magnification).” left out\nThe expression of differentiation markers at the cell surface was determined by flow cytometry. Differentiation of NB-4 and KG1 cells was measured by staining using the monoclonal antibodies CD11b-FITC and CD14-PE and appropriately labeled isotype controls (all from ImmunoTools, Friesoythe, Germany). Differentiation of human CD34^+ve cells was measured by triple-color staining using various cocktails of phycoerythrin-, fluorescein isothyocyanate-, and PerCP-monoclonal antibodies (from Becton–Dickinson, San Jose, CA, USA). […] Cells were analyzed using a FACSCalibur, and data analysis was performed using the CellQuest Pro software (Becton–Dickinson, San Jose, CA, USA)."}},
  "data": [
    {"molecule": "C=C1/C(=C\\C=C2/CCC[C@]3(C)[C@@H]([C@H](C)CCCC(C)(C)O)CC[C@@H]23)C[C@@H](O)C[C@@H]1O", "note": "[1,25D, 1α,25-Dihydroxyvitamin D3]", "values": [
      {"measurement": "CD11b+ve/CD14+ve cells (monocyte differentiation)", "setting": "NB-4 cells; NB-4 cells, 10 nM, alone", "value": "~ 6%"}
    ]},
    {"molecule": "CC1(C)CCC(C)(C)c2c1cc(C(=O)Nc1cc(F)c(C(=O)O)c(F)c1)c(O)c2Cl", "note": "[AGN195183]", "values": [
      {"measurement": "IC50", "setting": "human RARα", "value": 20.1, "unit": "nM"},
      {"measurement": "CD11b+ve/CD14+ve cells (monocyte differentiation)", "setting": "NB-4 cells; NB-4 cells, 100 nM combined with 10 nM 1,25D", "value": 40, "unit": "%"},
      {"measurement": "CD11b+ve/CD14−ve cells (neutrophil differentiation)", "setting": "NB-4 cells; NB-4 cells, 100 nM, alone", "value": 40, "unit": "%"},
      {"measurement": "IC50", "setting": "human RARγ; read-out: Binding affinity ED50, RARγ", "value": "> 5000", "unit": "nM"},
      {"measurement": "IC50", "setting": "human RARβ", "value": "> 5000", "unit": "nM"},
      {"measurement": "CD11b+ve/CD14+ve cells (monocyte differentiation)", "setting": "KG1 cells; KG1 cells, 100 nM combined with 10 nM 1,25D", "value": 18, "unit": "%"}
    ]},
    {"molecule": "CCOc1c(Br)cc(C(=O)Nc2ccc(C(=O)O)cc2)cc1C(=O)c1ccc(C)cc1", "note": "[AGN196996]", "values": [
      {"measurement": "cells (largely myeloid) produced versus γ antagonist-treated and control cultures", "setting": "CD34^+vehuHSC; by day 20", "value": "around fourfold more cells"},
      {"measurement": "prolonged lifespan of cultures", "setting": "CD34^+vehuHSC; human HSCs supplemented with stem cell factor ± interleukin 3, abstract", "value": "up to 55 days"},
      {"measurement": "IC50", "setting": "human RARα", "value": 3.9, "unit": "nM"},
      {"measurement": "effect on differentiation of NB-4 cells", "setting": "NB-4 cells; 100 nM with 10 nM 1,25D, compared with 1,25D alone", "value": "did not have an appreciable effect"},
      {"measurement": "effect on differentiation of NB-4 cells", "setting": "NB-4 cells; 100 nM, used alone", "value": "no effect"},
      {"measurement": "Binding affinity ED50, RARγ", "setting": "human RARγ", "value": ">10,000 nM"},
      {"measurement": "IC50", "setting": "human RARβ", "value": 4036, "unit": "nM"},
      {"measurement": "effect on differentiation of KG1 cells", "setting": "KG1 cells; 100 nM together with 10 nM 1,25D", "value": "no effect"},
      {"measurement": "effect on differentiation of KG1 cells", "setting": "KG1 cells; 100 nM, used alone", "value": "no effect"},
      {"measurement": "expansion of lineage−ve/CD133+ve/CD34+ve cells", "setting": "[1]", "value": "around 20 fold"}
    ]},
    {"molecule": "B1", "values": [
      {"measurement": "cells produced versus control cultures", "setting": "CD34^+vehuHSC; 30 ng/ml, by day 30", "value": "fourfold more cells"},
      {"measurement": "time for which cultures were maintained", "setting": "CD34^+vehuHSC; 30 ng/ml, 10 % FBS, 100 ng/ml SCF, 5 ng/ml IL-3", "value": "≤ 55", "unit": "days"}
    ]}
  ]
}
